Measurements: ChEMBL document CHEMBL2057203, “Synthesis and evaluation of novel F-18 labeled 4-aminoquinazoline derivatives: potential PET imaging agents for tumor detection” (Bioorg Med Chem Lett, 2012)

What was measured:
Spleen [1] = experiment: Biodistribution in S180 tumor-bearing mouse spleen at 8 to 10 uCi, iv after 120 mins by gamma counting; type: ADME, organism-based; conditions: in vivo, 2 h
Brain [2] = experiment: Biodistribution in S180 tumor-bearing mouse brain at 8 to 10 uCi, iv after 120 mins by gamma counting; type: ADME, organism-based; conditions: in vivo, 2 h
[3] = n-octanol-PBS partition coefficient, logP of the compound; type: physicochemical
Brain [4] = experiment: Biodistribution in S180 tumor-bearing mouse brain at 8 to 10 uCi, iv after 30 mins by gamma counting; type: ADME, organism-based; conditions: in vivo, 0.5 h
Blood [5] = experiment: Biodistribution in S180 tumor-bearing mouse blood at 8 to 10 uCi, iv after 60 mins by gamma counting; type: ADME, organism-based; conditions: in vivo, 1 h
Nucleic Acid [6] = experiment: Ratio of drug level in tumor to muscle in S180 tumor-bearing mouse at 8 to 10 uCi, iv at 120 mins by gamma counting; type: ADME, organism-based; conditions: in vivo, 2 h
Muscle tissue [7] = experiment: Biodistribution in S180 tumor-bearing mouse muscle at 8 to 10 uCi, iv after 60 mins by gamma counting; type: ADME, organism-based; conditions: in vivo, 1 h
Nucleic Acid [8] = experiment: Ratio of drug level in tumor to blood in S180 tumor-bearing mouse at 8 to 10 uCi, iv at 120 mins by gamma counting; type: ADME, organism-based; conditions: tumour, 2 h
Stomach [9] = experiment: Biodistribution in S180 tumor-bearing mouse stomach at 8 to 10 uCi, iv after 5 mins by gamma counting; type: ADME, organism-based; conditions: in vivo
Muscle tissue [10] = experiment: Biodistribution in S180 tumor-bearing mouse muscle at 8 to 10 uCi, iv after 120 mins by gamma counting; type: ADME, organism-based; conditions: in vivo, 2 h
Nucleic Acid [11] = experiment: Ratio of drug level in tumor to brain in S180 tumor-bearing mouse at 8 to 10 uCi, iv at 5 mins by gamma counting; type: ADME, organism-based; conditions: in vivo
[12] = Chemical stability in PBS after 2 hrs by radio-HPLC analysis at room temperature; type: physicochemical; conditions: buffer
Mus musculus [13] = experiment: Biodistribution in S180 cells xenografted in mouse tumor at 8 to 10 uCi, iv after 120 mins by gamma counting; type: ADME, organism-based, Neoplasm, CCRF S-180; conditions: in vivo, 2 h
Lung [14] = experiment: Biodistribution in S180 tumor-bearing mouse lung at 8 to 10 uCi, iv after 30 mins by gamma counting; type: ADME, organism-based; conditions: in vivo, 0.5 h
Mus musculus [15] = experiment: Biodistribution in S180 cells xenografted in mouse tumor at 8 to 10 uCi, iv after 30 mins by gamma counting; type: ADME, organism-based, Neoplasm, CCRF S-180; conditions: in vivo, 0.5 h
Nucleic Acid [16] = experiment: Ratio of drug level in tumor to muscle in S180 tumor-bearing mouse at 8 to 10 uCi, iv at 5 mins by gamma counting; type: ADME, organism-based; conditions: in vivo
Plasma = experiment: Metabolic stability in mouse plasma after 2 hrs by radio-HPLC analysis; type: ADME, cell-free
Kidney [17] = experiment: Biodistribution in S180 tumor-bearing mouse kidney at 8 to 10 uCi, iv after 60 mins by gamma counting; type: ADME, organism-based; conditions: in vivo, 1 h
Nucleic Acid [18] = experiment: Ratio of drug level in tumor to brain in S180 tumor-bearing mouse at 8 to 10 uCi, iv at 60 mins by gamma counting; type: ADME, organism-based; conditions: in vivo, 1 h
Blood [19] = experiment: Biodistribution in S180 tumor-bearing mouse blood at 8 to 10 uCi, iv after 5 mins by gamma counting; type: ADME, organism-based; conditions: in vivo
Muscle tissue [20] = experiment: Biodistribution in S180 tumor-bearing mouse muscle at 8 to 10 uCi, iv after 30 mins by gamma counting; type: ADME, organism-based; conditions: in vivo, 0.5 h
Heart [21] = experiment: Biodistribution in S180 tumor-bearing mouse heart at 8 to 10 uCi, iv after 120 mins by gamma counting; type: ADME, organism-based; conditions: in vivo, 2 h
Liver [22] = experiment: Biodistribution in S180 tumor-bearing mouse liver at 8 to 10 uCi, iv after 60 mins by gamma counting; type: ADME, organism-based; conditions: in vivo, 1 h
Brain [23] = experiment: Biodistribution in S180 tumor-bearing mouse brain at 8 to 10 uCi, iv after 5 mins by gamma counting; type: ADME, organism-based; conditions: in vivo
[24] = Chemical stability in PBS after 2 hrs by radio-HPLC analysis at 60 degC; type: physicochemical; conditions: buffer
Nucleic Acid [25] = experiment: Ratio of drug level in tumor to blood in S180 tumor-bearing mouse at 8 to 10 uCi, iv at 5 mins by gamma counting; type: ADME, organism-based; conditions: tumour
Stomach [26] = experiment: Biodistribution in S180 tumor-bearing mouse stomach at 8 to 10 uCi, iv after 60 mins by gamma counting; type: ADME, organism-based; conditions: in vivo, 1 h
Kidney [27] = experiment: Biodistribution in S180 tumor-bearing mouse kidneys at 8 to 10 uCi, iv after 5 mins by gamma counting; type: ADME, organism-based; conditions: in vivo
Nucleic Acid [28] = experiment: Ratio of drug level in tumor to brain in S180 tumor-bearing mouse at 8 to 10 uCi, iv at 30 mins by gamma counting; type: ADME, organism-based; conditions: in vivo, 0.5 h
Spleen [29] = experiment: Biodistribution in S180 tumor-bearing mouse spleen at 8 to 10 uCi, iv after 5 mins by gamma counting; type: ADME, organism-based; conditions: in vivo
Nucleic Acid [30] = experiment: Ratio of drug level in tumor to muscle in S180 tumor-bearing mouse at 8 to 10 uCi, iv at 60 mins by gamma counting; type: ADME, organism-based; conditions: in vivo, 1 h
Heart [31] = experiment: Biodistribution in S180 tumor-bearing mouse heart at 8 to 10 uCi, iv after 5 mins by gamma counting; type: ADME, organism-based; conditions: in vivo
Lung [32] = experiment: Biodistribution in S180 tumor-bearing mouse lung at 8 to 10 uCi, iv after 60 mins by gamma counting; type: ADME, organism-based; conditions: in vivo, 1 h
Blood [33] = experiment: Biodistribution in S180 tumor-bearing mouse blood at 8 to 10 uCi, iv after 120 mins by gamma counting; type: ADME, organism-based; conditions: in vivo, 2 h
Mus musculus [34] = experiment: Biodistribution in S180 cells xenografted in mouse tumor at 8 to 10 uCi, iv after 5 mins by gamma counting; type: ADME, organism-based, Neoplasm, CCRF S-180; conditions: in vivo
Blood [35] = experiment: Biodistribution in S180 tumor-bearing mouse blood at 8 to 10 uCi, iv after 30 mins by gamma counting; type: ADME, organism-based; conditions: in vivo, 0.5 h
Liver [36] = experiment: Biodistribution in S180 tumor-bearing mouse liver at 8 to 10 uCi, iv after 120 mins by gamma counting; type: ADME, organism-based; conditions: in vivo, 2 h
Kidney [37] = experiment: Biodistribution in S180 tumor-bearing mouse kidney at 8 to 10 uCi, iv after 120 mins by gamma counting; type: ADME, organism-based; conditions: in vivo, 2 h
Nucleic Acid [38] = experiment: Ratio of drug level in tumor to blood in S180 tumor-bearing mouse at 8 to 10 uCi, iv at 60 mins by gamma counting; type: ADME, organism-based; conditions: tumour, 1 h
Stomach [39] = experiment: Biodistribution in S180 tumor-bearing mouse stomach at 8 to 10 uCi, iv after 120 mins by gamma counting; type: ADME, organism-based; conditions: in vivo, 2 h
Spleen [40] = experiment: Biodistribution in S180 tumor-bearing mouse spleen at 8 to 10 uCi, iv after 60 mins by gamma counting; type: ADME, organism-based; conditions: in vivo, 1 h
Spleen [41] = experiment: Biodistribution in S180 tumor-bearing mouse spleen at 8 to 10 uCi, iv after 30 mins by gamma counting; type: ADME, organism-based; conditions: in vivo, 0.5 h
Heart [42] = experiment: Biodistribution in S180 tumor-bearing mouse heart at 8 to 10 uCi, iv after 60 mins by gamma counting; type: ADME, organism-based; conditions: in vivo, 1 h
Muscle tissue [43] = experiment: Biodistribution in S180 tumor-bearing mouse muscle at 8 to 10 uCi, iv after 5 mins by gamma counting; type: ADME, organism-based; conditions: in vivo
Nucleic Acid [44] = experiment: Ratio of drug level in tumor to brain in S180 tumor-bearing mouse at 8 to 10 uCi, iv at 120 mins by gamma counting; type: ADME, organism-based; conditions: in vivo, 2 h
Liver [45] = experiment: Biodistribution in S180 tumor-bearing mouse liver at 8 to 10 uCi, iv after 5 mins by gamma counting; type: ADME, organism-based; conditions: in vivo
Liver [46] = experiment: Biodistribution in S180 tumor-bearing mouse liver at 8 to 10 uCi, iv after 30 mins by gamma counting; type: ADME, organism-based; conditions: in vivo, 0.5 h
Kidney [47] = experiment: Biodistribution in S180 tumor-bearing mouse kidney at 8 to 10 uCi, iv after 30 mins by gamma counting; type: ADME, organism-based; conditions: in vivo, 0.5 h
Mus musculus [48] = experiment: Biodistribution in S180 cells xenografted in mouse tumor at 8 to 10 uCi, iv after 60 mins by gamma counting; type: ADME, organism-based, Neoplasm, CCRF S-180; conditions: in vivo, 1 h
Heart [49] = experiment: Biodistribution in S180 tumor-bearing mouse heart at 8 to 10 uCi, iv after 30 mins by gamma counting; type: ADME, organism-based; conditions: in vivo, 0.5 h
Brain [50] = experiment: Biodistribution in S180 tumor-bearing mouse brain at 8 to 10 uCi, iv after 60 mins by gamma counting; type: ADME, organism-based; conditions: in vivo, 1 h
Stomach [51] = experiment: Biodistribution in S180 tumor-bearing mouse stomach at 8 to 10 uCi, iv after 30 mins by gamma counting; type: ADME, organism-based; conditions: in vivo, 0.5 h
Nucleic Acid [52] = experiment: Ratio of drug level in tumor to blood in S180 tumor-bearing mouse at 8 to 10 uCi, iv at 30 mins by gamma counting; type: ADME, organism-based; conditions: tumour, 0.5 h
Lung [53] = experiment: Biodistribution in S180 tumor-bearing mouse lungs at 8 to 10 uCi, iv after 5 mins by gamma counting; type: ADME, organism-based; conditions: in vivo
Nucleic Acid [54] = experiment: Ratio of drug level in tumor to muscle in S180 tumor-bearing mouse at 8 to 10 uCi, iv at 30 mins by gamma counting; type: ADME, organism-based; conditions: in vivo, 0.5 h
Lung [55] = experiment: Biodistribution in S180 tumor-bearing mouse lung at 8 to 10 uCi, iv after 120 mins by gamma counting; type: ADME, organism-based; conditions: in vivo, 2 h

Drug uptake (Spleen [1]): 2.39 % ID/g
Drug uptake (Brain [2]): 1.98 % ID/g
logP [3]: 0.39
Drug uptake (Brain [4]): 3.15 % ID/g
Drug uptake (Blood [5]): 5.07 % ID/g
Ratio (Nucleic Acid [6]): 2.71
Drug uptake (Muscle tissue [7]): 3.35 % ID/g
Ratio (Nucleic Acid [8]): 1.3
Drug uptake (Stomach [9]): 5.35 % ID/g
Drug uptake (Muscle tissue [10]): 1.74 % ID/g
Ratio (Nucleic Acid [11]): 0.95
Stability [12]: Stable
Drug uptake (Mus musculus [13]): 4.71 % ID/g
Drug uptake (Lung [14]): 4.57 % ID/g
Drug uptake (Mus musculus [15]): 5.8 % ID/g
Ratio (Nucleic Acid [16]): 0.37
Stability (Plasma): Stable
Drug uptake (Kidney [17]): 3.99 % ID/g
Ratio (Nucleic Acid [18]): 1.87
Drug uptake (Blood [19]): 7 % ID/g
Drug uptake (Muscle tissue [20]): 4.18 % ID/g
Drug uptake (Heart [21]): 2.52 % ID/g
Drug uptake (Liver [22]): 4.22 % ID/g
Drug uptake (Brain [23]): 1.97 % ID/g
Stability [24]: Stable
Ratio (Nucleic Acid [25]): 0.27
Drug uptake (Stomach [26]): 4.44 % ID/g
Drug uptake (Kidney [27]): 14.25 % ID/g
Ratio (Nucleic Acid [28]): 1.84
Drug uptake (Spleen [29]): 4.5 % ID/g
Ratio (Nucleic Acid [30]): 1.64
Drug uptake (Heart [31]): 4.4 % ID/g
Drug uptake (Lung [32]): 3.75 % ID/g
Drug uptake (Blood [33]): 3.61 % ID/g
Drug uptake (Mus musculus [34]): 1.87 % ID/g
Drug uptake (Blood [35]): 5.85 % ID/g
Drug uptake (Liver [36]): 2.58 % ID/g
Drug uptake (Kidney [37]): 2.23 % ID/g
Ratio (Nucleic Acid [38]): 1.09
Drug uptake (Stomach [39]): 3.64 % ID/g
Drug uptake (Spleen [40]): 3.23 % ID/g
Drug uptake (Spleen [41]): 3.67 % ID/g
Drug uptake (Heart [42]): 4.26 % ID/g
Drug uptake (Muscle tissue [43]): 5.12 % ID/g
Ratio (Nucleic Acid [44]): 2.38
Drug uptake (Liver [45]): 11.34 % ID/g
Drug uptake (Liver [46]): 5.38 % ID/g
Drug uptake (Kidney [47]): 5.2 % ID/g
Drug uptake (Mus musculus [48]): 5.51 % ID/g
Drug uptake (Heart [49]): 5.02 % ID/g
Drug uptake (Brain [50]): 2.94 % ID/g
Drug uptake (Stomach [51]): 11.87 % ID/g
Ratio (Nucleic Acid [52]): 0.99
Drug uptake (Lung [53]): 4.6 % ID/g
Ratio (Nucleic Acid [54]): 1.39
Drug uptake (Lung [55]): 2.57 % ID/g
Compound: COc1cc2ncnc(Nc3ccc(F)c(Cl)c3)c2cc1OCC[18F]
